“And” between values parts separate entries of the source, which are not always exact repeats. Identical values can stand only once.

This assay has as its system HEK293T viability, CellTiter-Glo ATP luminescence, 72 h. Nature of the assay: HEK293T cell cytotoxicity, dose response, cytotoxicity control, CellTiter-Glo luminescence, cherry-pick, set 3 (AID 720588;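 note: potency for luminescence loss meaning cytotoxic compounds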). (ATP-based viability assays read luminescence as a measure of living cells.)
Consider `C[C@@H]1CN([C@H](C)CO)C(=O)c2cc(NC(=O)Nc3ccccc3)ccc2O[C@@H]1CN(C)Cc1ccc(C(=O)Nc2ccccc2N)cc1`, for which the AC35 was 12.7 µM.

Turning to `Cc1cc(C(=O)Nc2ccc3c(c2)C(=O)N(C)[C@@H]2CC[C@@H](CC(=O)NCc4ccc(-c5ccccc5)cc4)O[C@H]2CO3)no1`, the AC35 is 24.5 µM. For `C[C@@H]1CN([C@@H](C)CO)C(=O)c2cccc(NS(=O)(=O)c3ccc(Cl)cc3)c2O[C@@H]1CN(C)Cc1ccc(C(=O)Nc2ccccc2N)cc1`, the AC35 is 6.6 µM. The figure for `Cc1cccc(/C=C(\c2nc3ccccc3[nH]2)S(=O)(=O)c2ccccc2)c1` is 8.44 µM; for `CO[C@H]1CN(C)C(=O)c2ccc(NC(=O)c3ccc(-c4ccccc4)cc3)cc2OC[C@H](C)NC[C@H]1C` it is 8.64 µM; for `CCN(Cc1ccccc1)c1ccc(/C=N/N=C(N)N)cc1` it is 13.2 µM. With `Oc1c(Cl)cc(Cl)c(Cl)c1Cc1c(O)c(Cl)cc(Cl)c1Cl`, the AC35 was 11.4 µM. The figure for `Cc1ccc(C(=O)O/N=C(\N)c2ccccn2)cc1` is 14.9 µM; for `C[C@H](CO)N1C[C@H](C)[C@H](CN(C)Cc2ccc(C(=O)Nc3ccccc3N)cc2)Oc2c(cccc2N(C)C)C1=O` it is 11.3 µM. To `Oc1cccc(-c2nnc(-c3cccc(O)c3)nn2)c1` belongs 7.1 µM. To `CCN1CCS/C1=C\C=C\C1=[N+](CC)CCS1` belongs 11.2 µM. For the molecule `CC(C)(C)C(=O)Cn1ncc(Cl)c(Cl)c1=O`, the AC35 is 14.8 µM. To `C(=NNc1ccc2ccccc2n1)c1ccccn1` belongs 1.62 µM.

Regarding `COc1ccccc1C(CCNCc1ccc(N(C)C)cc1)c1ccc(OC(C)C)cc1` (centres undefined), the AC35 is 10.7 µM. The figure for `O=c1cc(-c2ccccc2)oc2ccc3ccccc3c12` is 1.57 µM; for `C[C@@H]1CN([C@@H](C)CO)C(=O)c2cccc(N(C)C)c2O[C@@H]1CN(C)Cc1ccc(C(=O)Nc2ccccc2N)cc1` it is 8.32 µM; for `Cc1nc(N)nc(N)c1CCCc1ccc(Cl)c(Cl)c1` it is 3.58 µM.

`N#CC(=C1C=CC(=NO)C(Cl)=C1)c1ccccc1`: the AC35 is 11.2 µM.

As for `CC(C)=CCC/C(C)=C/CN1C(=O)N(c2ccc(F)cc2)[C@H]2C[C@@H](c3ccccc3)[C@@H](C)[C@@H](C(=O)N3CCOCC3)C[C@H]21`, the AC35 is 2.01 µM. The figure for `C(=N\Nc1nc2ccccc2s1)/c1ccccn1` is 3.56 µM; for `C[C@@H]1CN([C@@H](C)CO)C(=O)c2cc(NS(=O)(=O)c3ccc(F)cc3)ccc2O[C@@H]1CN(C)Cc1ccc(C(=O)Nc2ccccc2N)cc1` it is 7.54 µM; for `C/C(=C\c1ccccc1)C(=O)N1CCC=CC1=O` it is 22.3 µM. To `Cc1cc(C)cc(N2C(=O)NC(=O)/C(=C\C=C\c3ccco3)C2=O)c1` belongs 10.6 µM; to `CC1=NN(c2ccccc2)C(=O)/C1=C\C=C\c1ccccc1`, 19.6 µM; to `COc1ccc(-c2cnc3c(NC=O)cc(-c4ccccc4OC)cn23)cc1OC`, 9.05 µM.

As to `C[C@H](O)C#Cc1ccc2c(c1)O[C@@H](CN(C)Cc1ccc(-c3ccccc3)cc1)[C@H](C)CN([C@@H](C)CO)S2(=O)=O`, the AC35 is 14.7 µM and 11.2 µM. The figure for `CC1OC(OC2CC(O)C3(CO)C4C(O)CC5(C)C(C6=CC(=O)OC6)CCC5(O)C4CCC3(O)C2)C(O)C(O)C1O` (centres undefined) is 0.0877 µM; for `COc1ccc(-c2cc(CNc3nc(NC(C)C)nc4cc(-c5ccccc5)sc34)on2)cc1` it is 12.5 µM. To `CCCCC[C@H](C)N1C[C@H](COCc2ccccc2)Oc2cc(N3CC[C@@H](N(C)C)C3)ccc2S1(=O)=O` belongs 14.8 µM; to `COC(=O)CC1(C(=O)OC)Oc2ccc(Br)cc2C(=O)N1c1cccc(Cl)c1Cl` (centres undefined), 13.1 µM; to `O=C(Nc1ccccc1F)N1CCCCN2[C@H](CO)[C@H](c3ccc(/C=C/c4ccccc4)cc3)[C@H]2C1`, 13.7 µM. Regarding `CCCCc1c(-c2ccccc2OC)ncn1Cc1ccc(C(C)(C)C)cc1`, the AC35 was 6.42 µM. Regarding `Nc1ccc(Cn2ccc3c4c(N)nc(N)nc4ccc32)cc1`, the AC35 was 0.125 µM. The figure for `C/C(=N\Nc1cccc2cccnc12)c1ccccn1` is 11.8 µM; for `CC(=O)OC1CC(OC2C(O)CC(OC3C(O)CC(OC4CCC5(C)C(CCC6C5CC(O)C5(C)C(C7=CC(=O)OC7)CCC65O)C4)OC3C)OC2C)OC(C)C1OC1OC(CO)C(O)C(O)C1O` (centres undefined) it is 0.182 µM; for `Cc1ccc2nc(-c3ccccc3)nn2c1` it is 11.7 µM.

On to `CCOc1ccc(N=Nc2ccc(O)c3ncccc23)cc1`, for which the AC35 is 13.4 µM. To `C[C@@H]1CCCCO[C@H](CN(C)Cc2ccc(C(=O)Nc3ccccc3N)cc2)[C@@H](C)CN([C@H](C)CO)C(=O)c2cc(NS(=O)(=O)c3ccc(F)cc3)ccc2O1` belongs 13.3 µM; to `Cc1nc(N)nc(N)c1/C=C/C(C)(C)c1ccc(Cl)cc1`, 0.0229 µM; to `Cc1ccc(S(=O)(=O)Nc2ccc3c(c2)C(=O)N([C@@H](C)CO)C[C@H](C)[C@@H](CN(C)Cc2ccc(C(F)(F)F)cc2)OCCCC[C@@H](C)O3)cc1`, 12.8 µM. To `C[C@@H]1CCCCO[C@H](CN(C)Cc2ccc(C(F)(F)F)cc2)[C@H](C)CN([C@H](C)CO)C(=O)c2cc(NC(=O)CCCN(C)C)ccc2O1` belongs 14.6 µM. To `CN1c2ccc(-c3ccc(C#N)cc3)cc2[C@H]2[C@H](CCN2S(=O)(=O)c2cccc(F)c2)[C@@H]1CO` belongs 23.4 µM; to `Cc1cc(C)c2sc(NNC(=O)c3ccc(S(=O)(=O)N4CCc5ccccc5C4)cc3)nc2c1`, 5.13 µM. As for `CCN1C/C(=C/c2ccc(N3CCOCC3)cc2)C(=O)/C(=C/c2ccc(N3CCOCC3)cc2)C1`, the AC35 was 9.96 µM. The figure for `O=C(Nc1ccc(F)cc1)N1CCCCN2[C@@H](CO)[C@H](c3ccc(C4=CCCCC4)cc3)[C@@H]2C1` is 9.39 µM; for `Cc1nn(Cc2ccccc2Cl)c2sc(C(=O)Nc3ccccc3N3CCOCC3)cc12` it is 15.9 µM; for `Oc1[nH]c2ccc(Br)cc2c1N=NC(=S)N1CCOCC1` it is 4.31 µM. As to `O=C1/C(=C\c2ccccc2)CN(C(=O)CCN2CCCCC2)C/C1=C/c1ccccc1`, the AC35 was 5.13 µM. For the molecule `CCc1nc(N)nc(N)c1-c1ccc(Cl)cc1`, the AC35 is 15.9 µM. The figure for `COc1ccc(CC(N)c2csc(NC(=O)Nc3cccc(C(F)(F)F)c3)n2)cc1` (centres undefined) is 10.1 µM; for `Cc1ccc(C(C)C)c(OCc2ccc(C(=O)N/N=C/c3ccc(O)cc3O)cc2)c1` it is 4.02 µM.

On to `O=c1ccc2ccccc2c2ccccc12`, for which the AC35 was 14.1 µM. The figure for `C[C@@H]1CN([C@H](C)CO)C(=O)c2cc(C#CCN(C)C)cnc2O[C@H]1CN(C)Cc1ccc(-c2ccccc2)cc1` is 12.4 µM; for `CCCN1C/C(=C/c2ccc3c(c2)OCO3)C(=O)/C(=C/c2ccc3c(c2)OCO3)C1` it is 21.2 µM; for `C[C@]12CC[C@H](O)C[C@H]1CC[C@@H]1[C@@H]2CC[C@]2(C)[C@@H](C3=CC(=O)OC3)CC[C@]12O` it is 0.629 µM. The figure for `C[C@H]1CN([C@@H](C)CO)S(=O)(=O)c2ccc(C#Cc3ccncc3)cc2O[C@@H]1CN(C)C(=O)Nc1ccc2c(c1)OCO2` is 2.99 µM.

For the molecule `C[C@@H]1CN([C@@H](C)CO)C(=O)c2cc(NC(=O)Nc3ccccc3)ccc2O[C@@H]1CN(C)Cc1ccc(C(=O)Nc2ccccc2N)cc1`, the AC35 was 8.46 µM. To `Cn1ccc2cc(-c3ccc4ncnc(NCc5cccs5)c4c3)ccc21` belongs 9.58 µM. To `CCCCc1c(Cc2ccccc2)ncn1CCc1ccccc1OC` belongs 20.7 µM.

Values taken from PubChem BioAssay AID720588 (Broad Institute, 2013).
